The results in this text go back to patent publication EP0332387B1, “Triazole derivatives, their preparation and their use as fungicides” (Sankyo Company Limited, priority 1988, dated 1989).

Each structure is given as a SMILES string.

What all share (assay type): in vivo
Test [1] relates to Rhizoctonia solani. The test can be described thus: Curative activity against sheath blight of rice plants (Experiment 3). More on the design: key: 0 = disease as untreated, 5 = no disease (complete control). The settings on record: rice seedlings (variety Nihonbare), sprayed 24 hours after inoculation at 10 ppm (30 ml/3 pots), further 5 days; height of the lesions. As to the method:
Rice seedlings (variety Nihonbare) at the 4 - 5 leaf stage were inoculated with the fungus, Rhizoctonia solani, by placing 4 - 5 oat grains on which the fungus had previously been cultured around the base of each rice seedling and keeping them in a moist chamber at 25 - 27 °C. After 24 hours, the rice seedlings were sprayed with an aqueous suspension of the test compound at a concentration of 10 ppm (30 ml/3 pots) and they then continued to be kept in the moist chamber for a further 5 days. The disease controlling index was given on the basis of the height of the lesions formed on the rice seedlings.
(§1) The compounds tested have the formula (1-1), in which Ar represents the group shown at the beginning of each part of the Table and R^1, R^2, X and Y are as defined in the Table.
(§2) The disease controlling index shown in the foregoing Tables 11 to 19 is indicated by the following codes: • 5--no disease (complete control) • 4--disease rate is less than 10% of the untreated plant • 3--disease rate is 10% - 30% of the untreated plant • 2--disease rate is 30% - 50% of the untreated plant • 1--disease rate is 50% - 70% of the untreated plant • 0--disease rate is almost same as the untreated plant.

A further test concerns Gibberella Fujikuroi. The test can be described thus: Activity against bakanae disease of rice plants by seed soaking (Experiment 5). The settings on record: infected rice seeds (variety Tanginbozu) immersed 3 days in aqueous suspension (concentration not given), 3 weeks; number of diseased seedlings. More on the design: key: 0 = disease as untreated, 5 = no disease (complete control). As to the method: Ten grams of rice seeds (variety Tanginbozu), infected with Gibberella Fujikuroi, were immersed in 20 ml of an aqueous suspension of the test compound for 3 days. At the end of this time, the treated seeds were densely sown in soil in pots, and the pots were placed in a greenhouse at 20 - 30 °C for 3 weeks. The disease controlling index was given on the basis of the number of diseased seedlings.
as §1, §2

Test [2] relates to Rhizoctonia solani. The experiment in a line: Preventive activity against sheath blight of rice plants (Experiment 2). The settings on record: rice seedlings (variety Nihonbare), sprayed at 100 ppm (30 ml/3 pots) 24 hours before inoculation, 5 days; height of the lesions. More on the design: key: 0 = disease as untreated, 5 = no disease (complete control). As to the method: Rice seedlings (variety Nihonbare) at the 4 - 5 leaf stage were sprayed with an aqueous suspension of the test compound at a concentration of 100 ppm (30 ml/3 pots). The seedlings were then kept for 24 hours at room temperature, after which they were inoculated with the fungus, Rhizoctonia solani, by placing 4 - 5 oat grains on which the fungus had previously been cultured around the base of each seedling. The seedlings were then kept in a moist chamber for 5 days at 25 - 27 °C. The disease controlling index was given on the basis of the height of the lesions formed on the rice seedlings.
Except in Table 12G, the compounds tested have the formula (1-1), in which Ar represents the group shown at the beginning of each part of the Table and R^1, R^2, X and Y are as defined in the Table.
as §2

The next test deals with Pyricularia oryzae. The note with it: rice seedlings (variety Sachikaze), sprayed 24 hours after inoculation at 10 ppm (30 ml/3 pots), further 6 days; number of lesions on the upper two leaves.
The subject of the next test is Puccinia recondita. The test can be described thus: Curative activity against leaf rust of wheat (Experiment 6). The note with it: wheat seedlings (variety Norin No 61), sprayed after inoculation at 3 ppm (30 ml/3 pots), 10 days; diseased area on the first leaf. As to the method: Wheat seedlings (variety Norin No 61) at the first leaf stage were inoculated with the fungus, Puccinia recondita, by spraying them with a spore suspension of the fungus. They were then kept in a moist chamber for 24 hours at 20 - 22 °C, after which they were moved to a greenhouse at 15 - 20 °C. […] The seedlings were then continuously kept in the greenhouse for 10 days. The disease controlling index was given on the basis of diseased area on the first leaf.

Test [3] concerns Rhizoctonia solani. The test can be described thus: Preventive activity against sheath blight of rice plants by submerged application (Experiment 4). The settings on record: rice seedlings (variety Nihonbare), applied to the water in the pots, 100 g per 10 ares, inoculated after 7 days, 5 days; height of the lesions.
Description: Rice seedlings (variety Nihonbare) at the 4 - 5 leaf stage grown in pots were flooded to a depth of 1 cm with water. The test compound was then applied to the water in the pots in an amount corresponding to 100 g per 10 ares. After keeping the seedlings in a greenhouse for 7 days, the water was drained from the pots and the seedlings were inoculated with the fungus, Rhizoctonia solani, by placing 4 - 5 oat grains on which the fungus had previously been cultured around the base of each seedling. The seedlings were then kept in a moist chamber for 5 days at 25 - 27 °C. The disease controlling index was given on the basis of the height of the lesions formed on the rice seedlings.
Except for Table 14F, the compounds tested have the formula (1-1), in which Ar represents the group shown at the beginning of each part of the Table and R^1, R^2, X and Y are as defined in the Table.
as §2

Test [4] relates to Erysiphe graminis f.sp. hordei. The test can be described thus: Curative activity against powdery mildew of barley (Experiment 7). The settings on record: barley seedlings (variety Sekishinriki), sprayed one day after inoculation at 3 ppm (30 ml/3 pots), further 10 days; diseased area on the first leaf. As to the method:
Barley seedlings (variety […]) at the first leaf stage were inoculated with conidia of Erysiphe graminis f.sp. hordei and kept in a greenhouse at 15 - 20°C. After one day, the seedlings were sprayed with an aqueous suspension of the test compound at a concentration of 3 ppm (30 ml/3 pots), and they continued to be kept in the greenhouse at that temperature for a further 10 days. The disease controlling index was given on the basis of the diseased area on the first leaf.

For the next test, the system named is Sphaerotheca fuliginea. The experiment in a line: Preventive activity against powdery mildew of cucumber (Experiment 8). The settings on record: cucumber seedlings sprayed at 300 ppm, inoculated after 24 hours, evaluated after 7 days in greenhouse; diseased area on third and fourth leaves. As to the method:
Cucumber seedlings (variety Sagamihanpaku) at the 3 - 4 leaf stage were sprayed with an aqueous suspension of the test compound at a concentration of 300 ppm (30 ml/3 pots). The seedlings were then kept for 24 hours at room temperature, after which they were inoculated with conidida of Sphaerotheca fuliginea. After keeping the seedlings in a greenhouse for 7 days, the disease controlling index was evaluated on the basis of the diseased area on the third and fourth leaves.

The subject of another test is Candida albicans. The test can be described thus: ED50 in mice infected with Candida albicans, oral treatment (Experiment 11). The note with it: 360 h, treated orally, fifteen days after infection. As to the method:
Groups of mice (each group contained 10 mice) were inoculated with 7 to 9 x 10^6 spores per mouse of Candida albicans. 1, 4, and 24 hours after the inoculation, each mouse was orally administered 20 mg/kg of the test compound each time. The anti-fungal activity was assessed by the survival rate 9 days after infection. The survival rate was recorded as 0% 2 days after infection in an untreated (control) group. […] Following essentially the same procedure as that described in Experiment 10, mice were infected with Candida albicans, and treated orally with various compounds of the invention, as shown in the following Table 21. Fifteen days after infection (or fourteen days in the case of the compounds of Example Nos. 5 and 10), ED50 values were determined and are reported in the following Table 21.

For the next test, the system named is Venturia inaequalis. The experiment in a line: Preventive activity against apple scab (Experiment 9). The note with it: apple seedlings sprayed at 300 ppm, inoculated after 24 hours, 3 days moist chamber then 10 days greenhouse; diseased area on third and fourth leaves. As to the method:
Apple seedlings at the 3 - 4 leaf stage were sprayed with an aqueous suspension of the test compound at a concentration of 300 ppm (30 ml/3 pots). The seedlings were then kept for 24 hours at room temperature, after which they were inoculated with the fungus, Venturia inaequalis, by spraying a spore suspension of the fungus over the seedlings. After inoculation, the seedlings were kept in a moist chamber for 3 days at 20 - 22 °C and then moved to a greenhouse at 20 - 22°C for 10 days. The disease controlling index was given on the basis of the diseased area on the third and fourth leaves.

Regarding `C[C@@H](CCN=[N+]=[N-])[C@](O)(Cn1cncn1)c1ccc(F)cc1F` (relative stereo) [Example 81, (2R*, 3S*)-5-Azido-2-(2,4-difluorophenyl)-3-methyl-1-(1H-1,2,4-triazol-1-yl)-2-pentanol], the disease controlling index with Rhizoctonia solani [1] is recorded as 5; in the test on Gibberella Fujikuroi it was 5; with Rhizoctonia solani [2], 5; in the test with Pyricularia oryzae, 5; in the test with Puccinia recondita, 5; in the test with Rhizoctonia solani [3], 4 (disease rate is less than 10% of the untreated plant).

Turning to `C[C@@H](NC(=O)c1ccc(C(F)(F)F)cc1F)[C@](O)(Cn1cncn1)c1ccc(F)cc1F` [Example 65], the disease controlling index in test [4] was 5; in the test on Rhizoctonia solani [1], 5; in the test on Gibberella Fujikuroi, 4 (disease rate is less than 10% of the untreated plant); in the test with Rhizoctonia solani [2], 5; in the test on Pyricularia oryzae it was 5; with Puccinia recondita, 5. In the test on Sphaerotheca fuliginea, the “Index (disease controlling index)” value came out at 5. Also, in the test with Candida albicans, the ED50 was below 0.625 mg/kg.

For `O=C(NCC(O)(Cn1cncn1)c1ccc(Cl)cc1Cl)c1ccc(Cl)cc1` (stereo not shown) [Compound X, 3-(4-chlorobenzoylamino)-2-(2,4-dichlorophenyl)-1-(1H-1,2,4-triaiol-1-yl)-2-propanol, reference compound], the disease controlling index with Rhizoctonia solani [1], in the test with Pyricularia oryzae and in the test on Rhizoctonia solani [3] was 0 each time.

In the case of `CC(N=[N+]=[N-])[C@H](C)[C@](O)(Cn1cncn1)c1ccc(F)cc1F` (single isomer, unassigned) [83 (C-4 isomer 1), (2R*, 3S*)-4-Azido-2-(2,4-difluorophenyl)-3-methyl-1-(1H-1,2,4-triazol-1-yl)-2-pentanol], the disease controlling index (in test [4]; in the test on Rhizoctonia solani [1]; with Gibberella Fujikuroi; with Rhizoctonia solani [2]; in the test on Pyricularia oryzae; with Puccinia recondita) was 5 in each case. Also, the disease controlling index in the test on Rhizoctonia solani [3] is given as 5. Also, the “Index (disease controlling index)” value in the test on Sphaerotheca fuliginea and with Venturia inaequalis was 5 in each case.

Take `CC(N=[N+]=[N-])[C@H](C)[C@](O)(Cn1cncn1)c1ccc(F)cc1F` (single isomer, unassigned) [83 (oxalate, C-4 isomer 2), (2R*, 3S*)-4-Azido-2-(2,4-difluorophenyl)-3-methyl-1-(1H-1,2,4-triazol-1-yl)-2-pentanol]: the disease controlling index (in [4]; in the test on Rhizoctonia solani [1]; in the test on Gibberella Fujikuroi; with Rhizoctonia solani [2]; with Pyricularia oryzae; in the test with Puccinia recondita) was 5 in each case. For the same molecule, the disease controlling index in the test on Rhizoctonia solani [3] is listed as 4 (disease rate is less than 10% of the untreated plant). Besides, the “Index (disease controlling index)” value in the test with Sphaerotheca fuliginea and with Venturia inaequalis was 5 in each case.

In the case of `CC(=O)N1CCN(c2ccc(OCC3COC(Cn4ccnc4)(c4ccc(Cl)cc4Cl)O3)cc2)CC1` (stereo not shown) [ketoconazole, reference compound], in the test with Candida albicans, the ED50 came out at 31.4 mg/kg.

Consider `C[C@@H](N=[N+]=[N-])[C@](O)(Cn1cncn1)c1ccc(F)cc1F` [Example 99, (2R, 3R)-3-Azido-2-(2,4-difluorophenyl)-1-(1H-1,2,4-triazol-1-yl)-2-butanol], for which the disease controlling index in the test with Rhizoctonia solani [1] is listed as 5; in the test with Gibberella Fujikuroi, 5; with Pyricularia oryzae it was 5; in the test on Rhizoctonia solani [3] it was 4 (disease rate is less than 10% of the untreated plant). Also, the “Index (disease controlling index)” value in the test on Sphaerotheca fuliginea and in the test on Venturia inaequalis was 5 in each case.

Take `C[C@@H](NC(=O)c1ccc(C#N)cc1)[C@](O)(Cn1cncn1)c1ccc(F)cc1F` [Example 67]: the disease controlling index (in [4]; with Rhizoctonia solani [1]; with Rhizoctonia solani [2]; with Puccinia recondita) was 4 (disease rate is less than 10% of the untreated plant) each time. In the test with Sphaerotheca fuliginea, the “Index (disease controlling index)” value was 5. In the test with Candida albicans, this molecule had an ED50 of 1.25 mg/kg.

Turning to `C[C@@H](N=[N+]=[N-])[C@](O)(Cn1cncn1)c1ccc(Cl)cc1Cl` (relative stereo) [Example 2, (2R*, 3R*)-3-Azido-2-(2,4-dichlorophenyl)-l-(lH-1,2,4-triazol-1-yl)-2-butanol], the disease controlling index in the test on Rhizoctonia solani [1] is given as 5; in the test with Pyricularia oryzae, 4 (disease rate is less than 10% of the untreated plant); in the test on Puccinia recondita, 5; in the test on Rhizoctonia solani [3], 5. In addition, the “Index (disease controlling index)” value with Sphaerotheca fuliginea and in the test on Venturia inaequalis was 5 in each case.

For `C[C@@H](NC(=O)c1ccc(C(F)(F)F)cc1)[C@](O)(Cn1cncn1)c1ccc(Cl)cc1` [Example 103, (2R, 3R)-2-(4-Chlorophenyl)-1-(1H-1,2,4-triazol-1-yl)-3-[(4-trifluoromethyl)benzoylamino]-2-butanol], in the test on Candida albicans, the 50% effect level (ED50) was put at a dose of 0.48 mg/kg.
